Measured values taken from article PMC4929166, “Pharmacological evaluation of synthetic cannabinoids identified as constituents of spice” (Forensic Toxicology, 2016).

Assays:
[1] = biological target: CB2 receptor (Homo sapiens, UniProt P34972); test: biochemical; format: binding; parameters: expressed in transfected cells; host or cells: CHO cells (membrane preparation); conditions: for Ki: versus 0.1 nM [3H]CP55,940, CHO cell membranes, mean ± SEM of three to five experiments, read-out: Ki ± SEM Human CB2; for CB2 selectivity Ki CB1/KiCB2: Table S1, selectivity index from Ki values
CB2 receptor, sequence (P34972 whole entry): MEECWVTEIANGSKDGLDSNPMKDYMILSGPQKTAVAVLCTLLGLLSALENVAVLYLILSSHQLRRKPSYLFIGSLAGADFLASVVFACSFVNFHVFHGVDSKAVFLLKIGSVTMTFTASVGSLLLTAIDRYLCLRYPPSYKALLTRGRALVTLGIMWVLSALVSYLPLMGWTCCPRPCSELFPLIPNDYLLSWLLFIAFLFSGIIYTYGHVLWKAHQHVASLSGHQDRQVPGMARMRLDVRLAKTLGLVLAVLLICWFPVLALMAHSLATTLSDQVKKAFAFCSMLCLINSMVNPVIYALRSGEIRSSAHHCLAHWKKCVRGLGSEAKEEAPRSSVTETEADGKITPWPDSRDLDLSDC

[2] = biological target: T1, human GPR55 (Homo sapiens, UniProt Q9Y2T6); test: β-Arrestin recruitment assay (PathHunter) at GPR55; format: cell-based; conditions: for IC50: Human GPR55 IC50, β-arrestin assay, antagonist mode; for Human GPR55 % activation / Human GPR55 % inhibition: β-arrestin assay; for Human GPR55 % activation: percent in brackets beside EC50 >10 µM; for Human GPR55 % inhibition: percent in brackets beside IC50
T1 construct: β-galactosidase enzyme fragment (PathHunter complementation tag)
T1 sequence (Q9Y2T6 whole entry, the tested form may be a part): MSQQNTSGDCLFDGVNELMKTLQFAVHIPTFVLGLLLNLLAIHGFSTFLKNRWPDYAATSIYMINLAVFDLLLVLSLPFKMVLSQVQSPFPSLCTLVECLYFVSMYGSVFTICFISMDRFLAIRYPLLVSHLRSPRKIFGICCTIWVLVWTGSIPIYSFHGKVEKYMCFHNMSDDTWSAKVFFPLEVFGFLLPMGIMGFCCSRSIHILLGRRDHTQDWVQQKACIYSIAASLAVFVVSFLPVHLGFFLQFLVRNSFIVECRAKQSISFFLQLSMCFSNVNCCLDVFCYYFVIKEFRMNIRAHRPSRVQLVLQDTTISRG
Description: (§1) Recruitment of β-arrestin to the respective receptor was detected by using β-galactosidase enzyme fragment complementation technology (β-arrestin PathHunter™ assay, DiscoverX, Fremont, CA, USA) as previously described. Data were obtained from three independent experiments, performed in duplicates. Data were analyzed using Graph Pad Prism Version 4.02 (San Diego, CA, USA).

[3] = biological target: T2, human GPR18 (Homo sapiens, UniProt Q14330); test: β-Arrestin recruitment assay (PathHunter) at GPR18; format: cell-based; conditions: for Human GPR18 % activation / Human GPR18 % inhibition: β-arrestin assay; for Human GPR18 % activation: percent in brackets beside EC50 >10 µM; for Human GPR18 % inhibition: percent in brackets beside IC50
T2 construct: β-galactosidase enzyme fragment (PathHunter complementation tag)
T2 sequence (Q14330 1-331): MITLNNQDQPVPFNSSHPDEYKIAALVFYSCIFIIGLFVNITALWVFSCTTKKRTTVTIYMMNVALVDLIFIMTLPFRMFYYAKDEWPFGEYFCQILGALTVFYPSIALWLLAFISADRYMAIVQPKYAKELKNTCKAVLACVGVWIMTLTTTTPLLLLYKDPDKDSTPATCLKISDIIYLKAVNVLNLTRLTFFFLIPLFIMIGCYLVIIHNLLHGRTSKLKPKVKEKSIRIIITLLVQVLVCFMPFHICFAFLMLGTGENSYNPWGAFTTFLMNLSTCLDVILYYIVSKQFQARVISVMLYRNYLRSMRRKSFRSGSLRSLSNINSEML
Description: as §1

[4] = biological target: CB1 receptor (Homo sapiens, UniProt P21554); test: biochemical; format: binding; parameters: expressed in transfected cells; host or cells: CHO cells (membrane preparation); conditions: for CB1 selectivity Ki CB2/KiCB1: Table S1, selectivity index from Ki values; for Ki: versus 0.1 nM [3H]CP55,940, CHO cell membranes, mean ± SEM of three to five experiments, read-out: Ki ± SEM Human CB1; for fold higher Ki value at CB1 receptors after introduction of a quinoline: amide-linked group A, compared with naphthyl analogue (8 vs 10; 9 vs 11)
CB1 receptor, sequence (P21554 whole entry): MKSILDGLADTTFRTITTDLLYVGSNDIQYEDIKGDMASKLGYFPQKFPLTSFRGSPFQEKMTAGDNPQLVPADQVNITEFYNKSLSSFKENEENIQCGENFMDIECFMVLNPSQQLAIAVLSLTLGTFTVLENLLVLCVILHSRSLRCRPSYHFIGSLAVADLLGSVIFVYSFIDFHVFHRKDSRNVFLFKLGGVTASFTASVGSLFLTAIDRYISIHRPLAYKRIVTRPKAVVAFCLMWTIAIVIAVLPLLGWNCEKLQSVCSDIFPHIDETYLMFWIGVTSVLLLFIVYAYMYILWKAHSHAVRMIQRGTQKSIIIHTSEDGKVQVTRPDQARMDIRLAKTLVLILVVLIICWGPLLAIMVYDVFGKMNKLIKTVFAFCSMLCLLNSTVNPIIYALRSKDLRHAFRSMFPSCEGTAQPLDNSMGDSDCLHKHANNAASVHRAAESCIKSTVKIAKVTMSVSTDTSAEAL

Compound | Ki [1] [nM] | EC50 [2] [nM] | IC50 [2] [nM] | Human GPR55 % activation [2] [%] | Human GPR55 % inhibition [2] | EC50 [3] [nM] | IC50 [3] [nM] | Human GPR18 % activation [3] [%] | Human GPR18 % inhibition [3] | CB1 selectivity Ki CB2/KiCB1 [4] | Ki [4] [nM] | CB2 selectivity Ki CB1/KiCB2 [1] | fold higher Ki value at CB1 receptors after introduction of a quinoline [4] [fold]
O=C(Nc1cccc2ccccc12)c1cn(CCCCCF)c2ccccc12 [Compound 5, 5F-NNEI] | 13.4 ± 1.6 | > 10000 | > 10000 | 25 | −8% | > 10000 | > 10000 | −3 | −17% | 3.6 | 3.69 ± 1.97 | – | –
O=C(Nc1cccc2ccccc12)c1cn(CCCCCCl)c2ccccc12 [Compound 6, 5Cl-NNEI] | 32.8 ± 10.8 | > 10000 | > 10000 | 28 | 5% | > 10000 | > 10000 | 1 | −13% | 3.2 | 10.2 ± 2.2 | – | –
O=C(Nc1cccc2ccccc12)c1nn(CCCCCF)c2ccccc12 [Compound 9, 5F-MN-18] | 2.5 ± 0.86 | > 10000 | > 10000 | 38 | −5% | > 10000 | > 10000 | −26 | 23% | 1.5 | 1.65 ± 0.26 | – | –
CCCCCn1nc(C(=O)Nc2cccc3cccnc23)c2ccccc21 [Compound 10, THJ] | 12.7 ± 4.1 | > 10000 | > 10000 | 11 | 50% | > 10000 | > 10000 | 4 | 30% | – | 103 ± 25 | 8.1 | 14
O=C(Nc1cccc2cccnc12)c1nn(CCCCCF)c2ccccc12 [Compound 11, 5F-THJ] | 2.75 ± 0.99 | > 10000 | > 10000 | 28 | – | > 10000 | > 10000 | −17 | 44% | – | 22.6 ± 7.5 | 8.2 | 27
CCCCCn1cc(C(=O)Nc2ccccc2)c2ccccc21 [Compound 14, SDB-006-N-phenyl-analog] | 275 ± 25 | > 10000 | > 10000 | 20 | 1% | > 10000 | > 10000 | 9 | −13% | – | 163 ± 17 | – | –
O=C(NC12CC3CC(CC(C3)C1)C2)c1nn(Cc2ccc(F)cc2)c2ccccc12 [Compound 18, N-((3s,5s,7s)-Adamantan-1-yl)-1-(4-fluorobenzyl)-1H-indazole-3-carboxamide] | 0.174 ± 0.018 | > 10000 | – | −11 | (83 %) | > 10000 | – | −27 | (69 %) | – | 1.06 ± 0.29 | 6.1 | –
O=C(Oc1cccc2ccccc12)c1cn(Cc2ccc(F)cc2)c2ccccc12 [Compound 20, FDU-PB-22] | 2.43 ± 0.92 | > 10000 | > 10000 | 11 | 30% | > 10000 | > 10000 | 30 | −4% | 2.0 | 1.19 ± 0.39 | – | –
O=C(Oc1cccc2cccnc12)c1cn(CCCCCF)c2ccccc12 [Compound 25, 5F-PB-22] | 0.633 ± 0.058 | > 10000 | > 10000 | 5 | -10% | > 10000 | > 10000 | −5 | −5% | 1.4 | 0.468 ± 0.069 | – | –
O=C(Oc1cccc2cccnc12)c1cn(Cc2ccc(F)cc2)c2ccccc12 [Compound 26, FUB-PB-22] | 0.478 ± 0.124 | > 10000 | > 10000 | 5 | 24% | > 10000 | > 10000 | 15 | 8% | 1.2 | 0.386 ± 0.117 | – | –
CCCCCn1nc(C(=O)c2cccc3ccccc23)c2ccccc21 [Compound 28, THJ018] | 4.57 ± 0.28 | > 10000 | 8200 ± 2110 | 6 | – | > 10000 | > 10000 | 33 | −5% | – | 5.84 ± 1.32 | 1.3 | –
O=C(c1cccc2ccccc12)c1nn(CCCCCF)c2ccccc12 [Compound 29, THJ2201] | 1.32 ± 0.39 | > 10000 | > 10000 | −1 | 47% | > 10000 | > 10000 | 18 | 21% | 1.0 | 1.34 ± 0.54 | 1.0 | –
Cc1ccc(C(=O)c2cn(CCCCCF)c3ccccc23)c2ccccc12 [Compound 30, MAM-2201] | 0.582 ± 0.123 | – | – | – | – | – | – | – | – | – | 1.58 ± 0.76 | 2.7 | –
Cc1ccc(C(=O)c2cn(CCCC(C)F)c3ccccc23)c2ccccc12 (stereo not drawn) [Compound 32, MAM-2201-4-fluoropentyl-isomer] | 0.808 ± 0.057 | > 10000 | 3070 ± 1480 | −41 | – | – | – | – | – | – | 3.23 ± 1.56 | 4.0 | –
CCCCCn1cc(C(=O)c2ccccc2OC)c2ccccc21 [Compound 33, RCS-4] | 2.86 ± 0.39 | – | – | – | – | – | – | – | – | – | 26.6 ± 6.6 | 9.3 | –
COc1ccccc1CC(=O)c1cn(CCC2CCCCC2)c2ccccc12 [Compound 34, RCS-8] | 14.6 ± 6.1 | – | – | – | – | – | – | – | – | – | 81.3 ± 15.8 | 5.6 | –
O=C(c1cn(CCCCCF)c2ccccc12)C12CC3CC(CC(C3)C1)C2 [Compound 36, 5F-AB001] | 1.47 ± 1.03 | > 10000 | ~10000 | 19 | 48% | > 10000 | ~10000 | −6 | – | – | 12.3 ± 3 | 8.4 | –
